Reference: patent US5215889A, “Catalytic and reactive polypeptides and methods for their preparation and use” (The Regents of the University of California, priority 1989, dated 1993)

How the values were obtained:
[1] = system: monoclonal antibody (IgG) generated against hapten 2 (benzylamine 2); assay: Antibody-catalyzed elimination of HF from β-fluoroketone; type: biochemical, Balb/c mice
Procedure: Solutions of substrate 1 were incubated with 2 μM Ig at 37° C. in 10 mM Bis-tris-HCl, 100 mM NaCl pH 6.0, at substrate concentration between 50 and 500 μM. Protein molarity was determined by absorbance at 280 nm using ε^0.1% =1.37 and a molecular weight of 150 kD for IgG. Elimination was followed spectrophotometrically. […] One of these antibodies was characterized further. […] The kinetics of the reaction are consistent with the simple Michaelis-Menten rate expression: [drawing 3] These values afford a kcat /kuncat of 1480 at pH 6.0.
Values of Ki were determined at 10 mM Bis-tris-HCl, 100 mM NaCl, pH 6.0 (37° C.). Substrate concentrations were 200 and 500 μM, Ig concentration was 2 μM, hapten concentration was […] to 1 μM.
The pH dependence of kcat was also determined under the same reaction conditions. Values of kcat are as follows: kcat =0.083 min^-1 at pH 5.5, kcat =0.11 at pH 5.75, kcat =0.188 at pH 6.0, kcat =0.3 at pH 6.5 and kcat =0.43 at pH 7.5. A plot of kcat vs. kcat [H^+ ] gives a pKa of 6.1 for the active site base. It is very likely that this corresponds to a high pKa carboxylate based on the strategy for generating the antibody. Chemical modification experiments with diazoacetamide support this hypothesis.

[2] = molecular target: T1, MOPC315 Fv variant Fv(Y34HL), Tyr 34L to His (Mus musculus, UniProt P01729+P01822, Y53H); assay: Hydrolysis of DNP coumarin esters 1-3 by Fv; type: biochemical, murine; details: for kcat (Table 2, Fv(Y34HL)): pH 6.8, SE (n = 3)
T1 construct: Antibody-derived VH was prepared by denaturing ion exchange chromatography of authentic MOPC315 Fv, obtained from pepsin digestion of purified IgA; lambda cII fusion with Factor Xa site (IleGluGlyArg) (N, cleaved yes); made in house; host or cells: VL: E. coli MZ1 (cII fusion, inclusion bodies); VH: pepsin-cleaved MOPC315 IgA from mouse ascites
Procedure: (§1) FIG. 22 is a Lineweaver-Burke plot of initial rate data obtained for the hydrolysis of 1 as described in Example 6 of the Experimental section herein. Four μl of a 100-fold concentrated solution of substrate 1 in DMSO was added to the 400 μl of Fv (115 nM) in buffer A while monitoring 7-hydroxycoumarin fluorescence at 25° C. (excitation:355nm; emission: 457 nm). A standard of 7-hydroxycoumarin was added at the completion of each assay to assess quenching of coumarin fluorescence by DNP at high substrate concentrations. The buffer background rate was subtracted from the initial rates. Each point represents the average velocity of at least duplicate experiments. Factor X, Factor Xa, or Russell's viper venom had no hydrolytic activity towards 1.
(§2) The ability of wild type and mutant Fvs to hydrolyze esters 1-3 was assayed by measuring the rate of coumarin release fluorimetrically at pH 6.8 (Pollack et al. (1988) supra; Pollack (1989) supra). […] Under these conditions, Fv(Y34HL) turns over at least 11 times and still retains 44% of its activity. The loss of activity is likely due to the accumulation of the inhibitory reaction product 8. […] Ester 2 was a poor substrate (kcat (2)=0.015 min^-1); and the hydrolysis of 3 was not accelerated (kcat (3)<0.005 min^-1). […] The initial rate of hydrolysis of 1 by Fv(Y34HL) at pH 6.8 is approximately 45-fold faster than the reaction with either […] (Table 2). At pH 8.7, the reactivity of Fv(Y34HL) and Fv(315) both increase, but differentially (v[Fv(Y34HL ]/v[Fv(315)]=3.3, at 10 μM 1). Under these conditions Fv(Y34HL) catalytically hydrolyzes 1 while Fv(315) reacts stoichiometrically. The increased reactivity of Fv(315) at higher pH may be due to deprotonation of the tyrosine hydroxyl and subsequent transesterification to form a relatively stable phenol ester.

[3] = molecular target: T2, MOPC315 Fv, wild type, Fv(315) (Mus musculus, UniProt P01729+P01822); assay: Fv fluorescence titration with DNP-L-lysine; type: binding, murine; details: pH 6.8; ±SE
T2 construct: The Fv fragment (26 kD) is a heterodimer consisting of two peptides, VH (14 kD) and VL (12 kD); made in house; host or cells: MOPC315 myeloma ascites (Balb/c mice), IgA cleaved with pepsin
T2 sequence (P01729 20-129, one chain of several): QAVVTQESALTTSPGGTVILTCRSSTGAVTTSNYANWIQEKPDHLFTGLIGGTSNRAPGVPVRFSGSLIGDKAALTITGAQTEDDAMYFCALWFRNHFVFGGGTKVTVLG
Procedure: (§3) FIG. 21 is a plot of Fv fluorescence titration with DNP-L-lysine as described in Example 6 of the Experimental section herein. Fv(315)(·),Fv(Y34FL)(Δ), or Fv(Y34HL)(o)(400 μl, 450-500 nM, ε280 nm=37,500 M^-1) in 100 mM potassium phosphate, pH 6.8 (buffer A), was titrated with solutions of 10-100 μM DNP-L-lysine (ε360 nm =17,500 M^-1) in buffer A while monitoring the protein fluorescence (excitation: 282 nm; emission: 343 nm). Fluorescence was corrected for the change in volume. Dissociation constants (KD) were determined by a modified Scatchard analysis.
(§4) The binding of ε-2,4-DNP-(L)-lysine (DNP Lys) by mutant wild type Fv proteins was assessed by titration of the intrinsic fluorescence of MOPC315 Fv (Hochman et al. (1973) supra; Hochman et al. (1977) supra), as shown in FIG. 21. […] DNP-aminoalkyl carboxylic acids of different lengths 6-9 (FIG. 16) were used to probe the location of the positively charged imidazole ring with respect to the DNP site in Fv(Y34HL) at pH 6.0.

[4] = molecular target: MOPC315 Fv variant Fv(Y34FL), Tyr 34L to Phe; assay: Fv fluorescence titration with DNP-L-lysine; type: binding, murine; details: pH 6.8; ±SE
Procedure: as §3, §4

[5] = molecular target: MOPC315 Fv variant Fv(Y34HL), Tyr 34L to His; assay: Fv fluorescence titration with DNP-L-lysine; type: binding, murine; details: pH 6.8; ±SE
Procedure: as §3, §4

[6] = molecular target: T3, MOPC315 Fab, thiolated (labeled with bromoketone 4; tyrosine 34L derivatized) (Mus musculus, UniProt P01729+P01822+P01844); assay: Fluorescence quenching binding of substrate by thiolated Fab; set-up: species or system murine
T3 construct: made in house; host or cells: Fab by papain digestion of reduced and alkylated MOPC315 IgA (murine myeloma)
T3 sequence (P01729+P01844 fused, one chain of several): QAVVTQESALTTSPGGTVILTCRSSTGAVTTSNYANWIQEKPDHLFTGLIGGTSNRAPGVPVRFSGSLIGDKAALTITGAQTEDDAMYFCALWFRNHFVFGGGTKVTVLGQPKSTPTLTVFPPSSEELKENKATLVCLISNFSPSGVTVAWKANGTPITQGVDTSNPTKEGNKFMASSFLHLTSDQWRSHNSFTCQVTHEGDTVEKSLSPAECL
Text: The reaction kinetics are consistent with the formation of a Michaelis complex (FIG. 6). […] Neither the uncleaved affinity-labeled antibody nor the iodoacetamide-alkylated antibody accelerated the rate of the thiolysis reaction above the background rate. The stoichiometry of product release corresponded to 1.0 coumarin to 1.0 Fab-SH. […] However, the introduction of both a thiol and a general base into the label may lead to a catalytic system (Bruice (1959) J. Am. Chem. Soc. 81:5444 and Street et al. (1985) J. Am. Chem. Soc. 107:7669).

underivatized MOPC 315 = assay: Fluorescence quenching binding in PBS; set-up: species or system murine
Procedure: The hydrolysis of coumarin esters 1a-1d (FIG. 9) by the semisynthetic antibody was assayed in the presence and absence of 1 μM derivatized Fab at varying pH, at 30° C. (Morpholineethanesulfonic acid (100 mM) as used as the buffer in the range of pH 5 to 7. Sodium phosphate (100 mM) was used in the range of pH 6 to 8 and tris-HCl (100 mM) was used in the range of pH 7 to 9.) The release of free coumarin was quantitated fluorometrically, exciting at 355 nm and measuring emission at 455 nm. Antibody rates were corrected by subtracting the rate of cleavage in the absence of antibody. […] This value is almost identical to the KD (5 μM) for the binding of N-DNP-glycine to underivatized MOPC 315, (determined by fluorescence quenching in PBS). […] At pH>8, the unmodified Fab slightly accelerates the cleavage of ester 1b in a stoichiometric reaction, presumably involving modification of an amino acid side chain near the binding site. However, this reaction is not observed in the catalysis by the imidazole-derivatized antibody, where the reactive antibody side-chain is probably inaccessible. The catalytic activity of the semisynthetic antibody is destroyed by treatment with diethylpyrocarbonate, an imidazole-specific reagent. […]

[7] = molecular target: T4, MOPC315 Fab, thiolated (affinity-labeled with 2 and cleaved; free thiol at lysine 52H) (Mus musculus, UniProt P01729+P01822+P01878); assay: Thiolysis of DNP coumarin ester by thiolated Fab; type: biochemical, murine
T4 construct: made in house; host or cells: Fab by papain digestion of reduced and alkylated MOPC315 IgA (murine myeloma)
T4 sequence (P01822+P01878 fused): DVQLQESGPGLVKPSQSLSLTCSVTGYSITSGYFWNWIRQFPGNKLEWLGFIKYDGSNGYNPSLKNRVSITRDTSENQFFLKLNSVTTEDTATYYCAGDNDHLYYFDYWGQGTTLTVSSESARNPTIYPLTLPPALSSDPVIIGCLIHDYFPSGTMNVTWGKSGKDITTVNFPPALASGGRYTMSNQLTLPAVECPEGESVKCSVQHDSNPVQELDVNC
T4 sequence (P01729 20-129): as the sequence (P01729 20-129, one chain of several) above
Procedure: Cleavage of DNP coumarin esters 14 and 15 by the thiol-containing antibodies was assayed in the presence of 0.1M NaCl, 50 mM sodium phosphate, pH 7.0, with 24 μM dithiothreitol at 10° C. The release of free coumarin was quantitated fluorometrically, exciting at 355 nm and measuring emission at 455 nm. The S-thiopyridyl Fab was first dialyzed against assay buffer, 30 min. prior to the assays, an aliquot of the thiopyridyl Fab (0.15 mg in 0.19 ml) was reduced with 3.8 mM dithiothreitol at 20° C. For each assay, reduced, thiolated Fab (15 μg in 18.8 μl) was diluted with assay buffer (2.95 ml) so that the net concentrations of thiolated Fab and of dithiothreitol were 0.1 μM and 24 μM, respectively. After equilibrating, the substrate was added (30 μl of a stock solution in acetonitrile) and the solution mixed for 10 sec. before monitoring fluorescence change. Antibody rates were corrected by subtracting the rate of cleavage in the absence of Fab.
The reaction kinetics are consistent with the formation of a Michaelis complex (FIG. 6). […] Neither the uncleaved affinity-labeled antibody nor the iodoacetamide-alkylated antibody accelerated the rate of the thiolysis reaction above the background rate. The stoichiometry of product release corresponded to 1.0 coumarin to 1.0 Fab-SH. […]

[8] = molecular target: T2, MOPC315 Fv, wild type, Fv(315); assay: Hydrolysis of DNP coumarin esters 1-3 by Fv; type: biochemical, murine; details: pH 6.8
Procedure: as §1, §2

[9] = system: antibody 15F1-3B1 (IgG, thymine dimer specific); assay: Antibody-sensitized photocleavage of thymine dimer; type: biochemical, Balb/c mice
Procedure: Solutions of carboxymethylthymine dimer 1 were irradiated with 300 nm light in the presence of antibody; and dimer cleavage was assayed spectrophotometrically as follows. Deoxygenated solutions of thymine dimer (5-300 μM) and antibody (3 μM) in 100 mM NaCl, 10 mM phosphate buffer, pH 7.5 were irradiated at 18°-20° C. in a 1 mL quartz cuvette. All photolysis experiments were performed with a 1000 W high pressure Hg-Xe lamp equipped with a Photon Technologies International, Inc. Model Q5001 Quantacount electronic actinometer and a diffraction grating monochromator blazed at 500 nm. A bandpass of 3 nm was used for both kinetic and photon counting experiments. […] Monomer formation was assayed spectrophotometrically at fixed time intervals (λmax =272 nm, log ε=3.90).

[10] = substrate: O=C(CCCCNc1ccc([N+](=O)[O-])cc1[N+](=O)[O-])Oc1ccc2ccc(=O)oc2c1; assay: Hydrolysis of DNP coumarin esters 1-3 by Fv; type: biochemical, murine; details: other: pH 6.8, 25° C.
Procedure: as §1, §2

[11] = substrate: O=C(CCNc1ccc([N+](=O)[O-])cc1[N+](=O)[O-])Oc1ccc2ccc(=O)oc2c1; assay: Hydrolysis of DNP coumarin esters 1-3 by Fv; type: biochemical, murine; details: other: pH 6.8, 25° C.
Procedure: as §1, §2

## CC(=O)CC(F)c1ccc([N+](=O)[O-])cc1 (racemic) [substrate 1, (R,S) 4-Fluoro-4-p-nitro phenylbutan-2-one]
[1]; pH 5.5
  kcat: 0.00138 s⁻¹
[1]; pH 5.75
  kcat: 0.00183 s⁻¹
[1]; pH 6.0, 37° C.
  Km: 182 µM
  kcat: 0.00313 s⁻¹
[1]; pH 6.5
  kcat: 0.005 s⁻¹
[1]; pH 7.5
  kcat: 0.00717 s⁻¹

## N[C@@H](CCCCNc1ccc([N+](=O)[O-])cc1[N+](=O)[O-])C(=O)O [DNP-L-lysine, ε-2,4-DNP-(L)-lysine]
[2]
  Ki: 3800 ± 1500 nM
[3]
  Kd: 270 ± 30 nM
[4]
  Kd: 270 ± 30 nM
[5]
  Kd: 1400 ± 300 nM

## CC(=O)Oc1ccc([N+](=O)[O-])cc1[N+](=O)[O-] [DNP-acetate]
[6]
  binding of substrate (fluorescence quenching): did not bind the substrate with appreciable affinity

## O=C(O)CNc1ccc([N+](=O)[O-])cc1[N+](=O)[O-] [DNP-glycine, N-DNP-glycine]
Underivatized MOPC 315
  Kd: 5000 nM
[7]
  Ki: 8000 nM

## O=C(CCCCCNc1ccc([N+](=O)[O-])cc1[N+](=O)[O-])Oc1ccc2ccc(=O)oc2c1 [compound 2]
[8]
  kcat (Table 2, Fv(315)): 0.005 min
[2]
  kcat (Table 2, Fv(Y34HL)): 0.015 min

## O=C(CCNc1ccc([N+](=O)[O-])cc1[N+](=O)[O-])Oc1ccc2ccc(=O)oc2c1 [compound 3]
[2]
  kcat (Table 2, Fv(Y34HL)): < 0.005 min

## C[C@]12C(=O)NC(=O)N(CC(=O)O)[C@H]1[C@H]1N(CC(=O)O)C(=O)NC(=O)[C@]12C [dimer 1, carboxymethylthymine-(cis,syn)cyclobutane dimer]
[9]; 300 nm irradiation, pH 7.5
  kcat /Km: 3000 M⁻¹ s⁻¹
[9]; 300 nm irradiation, pH 7.5, 18°-20° C.
  Km: 6.5 µM
[9]; 300 nm, incident flux 1.26×10^-7 einsteins min^-1, pH 7.5, 18°-20° C.
  kcat: 0.02 s⁻¹

B1: MOPC315 Fv variant Fv(Y34HL), Tyr 34L to His (Mus musculus; Y53H) (protein)
chain 1: QAVVTQESALTTSPGGTVILTCRSSTGAVTTSNHANWIQEKPDHLFTGLIGGTSNRAPGVPVRFSGSLIGDKAALTITGAQTEDDAMYFCALWFRNHFVFGGGTKVTVLGQPKST
chain 2: DVQLQESGPGLVKPSQSLSLTCSVTGYSITSGYFWNWIRQFPGNKLEWLGFIKYDGSNGYNPSLKNRVSITRDTSENQFFLKLNSVTTEDTATYYCAGDNDHLYYFDYWGQGTTLTVSS
notes: Antibody-derived VH was prepared by denaturing ion exchange chromatography of authentic MOPC315 Fv, obtained from pepsin digestion of purified IgA; lambda cII fusion with Factor Xa site (IleGluGlyArg) (N, cleaved yes); made in house; host or cells: VL: E. coli MZ1 (cII fusion, inclusion bodies); VH: pepsin-cleaved MOPC315 IgA from mouse ascites
[10]
  Km: 2.2 ± 0.2 µM
  kcat: 0.003 ± 0.0005 s⁻¹
  kcat/Km: 8.2×10^4 m^-1 min^-1
[11]
  kcat: 8.3e-05 s⁻¹
